Measured values taken from PMC5748433, “Study on the effect of EMD386088, a 5-HT6 receptor partial agonist, in enhancing the anti-immobility action of some antidepressants in rats” (Naunyn-Schmiedeberg's Archives of Pharmacology, 2017).
Read-outs that look alike come from different tables or passages of the source.

Legend:
β1-adrenoceptors = test system: β1-adrenoceptors; parameters: method as in Jastrzębska-Więsek et al. [2013]; settings: ref Jastrzębska-Więsek et al. [2013]; cited from earlier work
rats [1] = assay: Modified forced swim test (FST) in rats; format: in vivo, rat; settings: EMD386088 alone 2.5 mg/kg i.p.
Protocol: […]. All drugs were dissolved in distilled water immediately before administration in a volume of 2 mL/kg. All the compounds were administered intraperitoneally (i.p.). […] Control animals received vehicle according to the same schedule.
The experiment was carried out according to the modified by Detke et al. ([1995]) method of Porsolt et al. ([1978]). On the first day of an experiment, the animals were gently individually placed in Plexiglas cylinders (40 cm high, 18 cm in diameter) containing 30 cm of water maintained at 23–25 °C for 15 min. On removal from water, the rats were placed for 30 min in a Plexiglas box under 60-W bulb to dry. On the following day (24 h later), the rats were re-placed in the cylinder and the total duration of immobility, swimming, and climbing was recorded during the whole 5-min test period. The swimming behavior entailed active swimming motions, e.g., moving horizontally around in the cylinder. Climbing activity consisted of upward directed movements of the forepaws along the side of the swim chamber, and immobility was assigned when no additional activity was observed other than that necessary to keep the rat’s head above the water (Detke et al. [1995]). Fresh water was used for each animal.
The data of behavioral studies were evaluated using two-way analysis of variance (ANOVA) followed by Bonferroni’s post hoc test, p < 0.05 was considered significant.

recombinant human CYP2D6 = target: T1, recombinant human CYP2D6 (Homo sapiens, UniProt P10635); assay: Luminescent CYP2D6 P450-Glo assay; format: in vitro ADME; settings: read-out: IC 50 CYP2D6
T1 construct: purchased Promega (Madison, WI, USA)
Protocol: The enzymatic reactions were performed in white polystyrene, flat-bottom Nunc™ MicroWell™ 96-Well Microplates (Thermo Scientific, Waltham, MA USA). The luminescence signal was measured with a microplate reader in luminescence mode (EnSpire, PerkinElmer, Waltham, MA USA).

[2] = test system: serotonin (5-HT) transporter; parameters: method as in Jastrzębska-Więsek et al. [2013]; settings: ref Jastrzębska-Więsek et al. [2013]; cited from earlier work
5-HT6 receptor = settings: cited from earlier work
rats [3] = test system: rats; parameters: method as in Jastrzębska-Więsek et al. [2015]; settings: EMD386088 alone 5 mg/kg i.p., ref Jastrzębska-Więsek et al. [2015]; cited from earlier work
dopamine D3 = test system: dopamine D3; parameters: method as in Jastrzębska-Więsek et al. [2013]; settings: ref Jastrzębska-Więsek et al. [2013]; cited from earlier work
[4] = Pharmacokinetic study in rats, plasma (LC/MS/MS, non-compartmental); format: in vivo, rat; settings: for Vd/F / AUC(0-t) / CL/F / Cmax / MRT / half-life / Tmax: rat, plasma
Protocol: Blood samples were collected at 0 min (predose), 5 min, 15 min, 30 min, 60 min, 120 min, and 240 min after injections. The blood was collected from right ventricle under anesthesia using a mixture of ketamine (50 mg/kg)/xylasine (8 mg/kg) in the ratio of 3:1, and 0.025 mL of a mixture for 10 g body weight was injected i.p. 10 min before planned blood collection. Blood and brain samples were collected under general anesthesia induced by i.p. injections of ketamine (50 mg/kg)/xylasine (8 mg/kg). The blood samples were taken into heparinized tubes, immediately centrifuged at 3500 rpm for 10 min, and plasma was collected. After the blood was drawn, the rat’s spinal cord was cut and the cerebral tissue was removed, and after dissection washed in PBS saline. The brain and plasma samples were immediately frozen at − 80 °C for LC/MS/MS analysis.
Pharmacokinetic parameters were calculated by a non-compartmental approach from the average concentration values, using Phoenix WinNonlin software (Certara, Princeton, NJ 08540 USA). First order elimination rate constant (λz) was calculated by linear regression of time versus log concentration.
The quantification of studied compounds in plasma and brain samples was done using HPLC Agilent 1100 system (Agilent Technologies, Waldbronn, Germany) coupled to the triple quadrupole mass spectrometer API 2000 (ABSciex, Framingham, Massachusetts, USA) equipped with an electrospray ion source. After preparation, the samples were injected (20 μL) onto XBridge C18 (2.1 mm × 30 mm, 3.5 μm, Waters, Milford, Massachusetts, USA) analytical column. The mobile phase consisted of ACN with 0.1% formic acid (A) and water with 0.1% formic acid (B) were delivered in gradient elution started with 90% of eluent B, increasing during 2 min to 90% of eluent A, maintained to 3 min, and then returned during 5 min to 90% of eluent B, and maintained 90% of eluent B during 5 min at a flow rate of 300 μL/min. The total time of analysis was 15 min. Electrospray ionization process was performed in positive ionization and the data acquisition was carried out in multiple reaction monitoring mode (MRM) for EMD386088 and its internal standard (nebivolol). The ion spray source settings were as follows: spray voltage: 5 kV, heater temperature: 350 °C, curtain gas: 15 psi, source gas 1: 35 psi, source gas 2: 10 psi. The ions measured were m/z 247.3 (Q1) and m/z 168.2 (Q3) for EMD386088, and m/z 406.2 (Q1) and m/z 151.1 (Q3) for IS.
A sample volume of 50 μL of plasma or brain homogenate was transferred into the clean Eppendorf tube and spiked with 5 μL of IS solution (1 μg/mL) obtaining the final concentration of 100 ng/mL. After 5 min of mixing (1500 rpm), proteins were precipitated using 150 μL ACN. After 10 min of samples shaking (1500 rpm), the incubation step was performed (10 min, 4 °C). Next, samples were centrifuged (10,000 rpm, 10 min, 4 °C) and the supernatant was transferred into chromatographic vial for LC/MS/MS analysis. The brain homogenate was prepared maintaining the tissue: phosphate-buffered saline (PBS) at a ratio of 1:5. The homogenization was carried out employing IKA® T10 Basic ULTRA-TURRAX disperser (IKA Werke GmbH & Co. KG, Staufen, Germany). After homogenization, 50 μL of sample was collected for further preparation. All samples were stored on ice during the preparation process.

[5] = ip, 2.5 mg/kg, rat plasma, EMD386088 2.5 mg/kg i.p. alone
[6] = ip, 2.5 mg/kg, rat plasma, EMD386088 2.5 mg/kg i.p. jointly with imipramine (IMI) 15 mg/kg i.p.
[7] = ip, 5 mg/kg, rat plasma, EMD386088 5 mg/kg i.p. alone
[8] = rats, EMD386088 with imipramine vs alone

T1 sequence (P10635 whole entry): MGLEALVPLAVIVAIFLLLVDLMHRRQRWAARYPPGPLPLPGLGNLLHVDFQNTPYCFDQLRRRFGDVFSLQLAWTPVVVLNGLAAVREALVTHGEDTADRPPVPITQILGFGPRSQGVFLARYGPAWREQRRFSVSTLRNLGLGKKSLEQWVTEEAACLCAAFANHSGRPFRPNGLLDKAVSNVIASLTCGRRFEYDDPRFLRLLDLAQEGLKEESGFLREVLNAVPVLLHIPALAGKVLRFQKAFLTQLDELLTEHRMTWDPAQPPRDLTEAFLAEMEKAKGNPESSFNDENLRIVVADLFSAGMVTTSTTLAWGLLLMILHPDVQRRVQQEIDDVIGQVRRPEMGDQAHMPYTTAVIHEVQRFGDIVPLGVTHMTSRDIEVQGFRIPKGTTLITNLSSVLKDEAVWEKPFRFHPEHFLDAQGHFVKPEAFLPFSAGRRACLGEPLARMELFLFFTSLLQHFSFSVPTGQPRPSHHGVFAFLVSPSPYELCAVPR

## Cc1[nH]c2ccc(Cl)cc2c1C1=CCNCC1.Cl [EMD386088, 5-chloro-2-methyl-3-(1,2,3,6-tetrahydro-4-pyridinyl)-1H-indole hydrochloride]
β1-adrenoceptors
  affinity for β1-adrenoceptors: no affinity
Rats [1]
  activity in the FST: not active
Recombinant human CYP2D6
  IC50: 2250 nM
[2]
  affinity for serotonin (5-HT) transporter: no affinity
5-HT6 receptor; in vitro, ref Jastrzębska-Więsek et al. [2013]
  5-HT6 receptor functional profile: potent 5-HT6 receptor partial agonist
5-HT6 receptor; read-out: EC50 5-HT6 receptor agonist, ref Mattsson et al. ([2005])
  EC50: 1 nM
Rats [3]
  antidepressant-like effect in the FST: exerts an antidepressant-like effect
Dopamine D3
  affinity for dopamine D3: no affinity
[4]; intraperitoneal, rats, EMD386088 2.5 mg/kg coadministered with imipramine 15 mg/kg, read-out: volume of distribution V d/F
  Vd/F: 32.2 L/kg
[4]; [5]
  AUC(0-t): 36.8 ng·h/mL
  CL/F: 1050 mL/min/kg
  Cmax: 22.9 ng/mL
  MRT: 1.31 h
[4]; ip, 2.5 mg/kg, rat plasma, EMD386088 2.5 mg/kg i.p. alone, read-out: V d/F
  Vd/F: 102 L/kg
[4]; ip, 2.5 mg/kg, rat plasma, EMD386088 2.5 mg/kg i.p. alone, read-out: t1/2
  half-life: 1.12 h
[4]; ip, 2.5 mg/kg, rat plasma, EMD386088 2.5 mg/kg i.p. alone, read-out: t max (converted)
  Tmax: 0.0833 h
[4]; [6]
  AUC(0-t): 125 ng·h/mL
  CL/F: 289 mL/min/kg
  Cmax: 49 ng/mL
  MRT: 1.55 h
[4]; ip, 2.5 mg/kg, rat plasma, EMD386088 2.5 mg/kg i.p. jointly with imipramine (IMI) 15 mg/kg i.p., read-out: V d/F
  Vd/F: 32.2 L/kg
[4]; ip, 2.5 mg/kg, rat plasma, EMD386088 2.5 mg/kg i.p. jointly with imipramine (IMI) 15 mg/kg i.p., read-out: t1/2
  half-life: 1.28 h
[4]; ip, 2.5 mg/kg, rat plasma, EMD386088 2.5 mg/kg i.p. jointly with imipramine (IMI) 15 mg/kg i.p., read-out: t max (converted)
  Tmax: 1 h
[4]; [7]
  AUC(0-t): 75.5 ng·h/mL
  CL/F: 1040 mL/min/kg
  Cmax: 45.2 ng/mL
  MRT: 1.3 h
[4]; ip, 5 mg/kg, rat plasma, EMD386088 5 mg/kg i.p. alone, read-out: V d/F
  Vd/F: 97.1 L/kg
[4]; ip, 5 mg/kg, rat plasma, EMD386088 5 mg/kg i.p. alone, read-out: t1/2
  half-life: 1.08 h
[4]; ip, 5 mg/kg, rat plasma, EMD386088 5 mg/kg i.p. alone, read-out: t max (converted)
  Tmax: 0.0833 h
[4]; ip, 5 mg/kg, rats, EMD386088 alone (2.5 and 5 mg/kg) i.p., read-out: t 1/2 (terminal half-life)
  half-life: 1.12 h
[4]; ip, 5 mg/kg, rats, EMD386088 alone (2.5 and 5 mg/kg) i.p., read-out: t max (time to maximum concentration in the blood) (converted)
  Tmax: 0.0833 h
[4]; ip, rats, EMD386088 alone i.p., read-out: volume of distribution V d/F
  Vd/F: 102 L/kg
[4]; [8]
  change of area under the concentration-time curve (AUC) on coadministration with imipramine: increased three times
  change of volume of distribution on coadministration with imipramine: decreased three times
